Read-outs that look alike come from different tables or passages of the source.
What was measured:
[1] = Rotating rod test (sedative/muscle relaxant properties), i.v.; assay type: in vivo; conditions: Mus musculus, iv, mice
Method: The sedative/muscle relaxant properties of the compounds of formula I in accordance with the invention can be determined, for example, in the rotating rod test. Mice weighing 19-21 g are used for this test. They have free access to feed and drinking water up to 1 hour before the beginning of the test. They are brought into the test laboratory at least 30 minutes before the test. In the rotating rod test the animals are placed on a horizontally arranged, smooth metal rod having a diameter of 3 cm, which is rotated at 2 revolutions per minute. Initially, the animals are given the opportunity of familiarizing themselves with the test situation for 30 seconds. Subsequently, those animals which succeed in remaining on the rod for at least 1 minute are selected. These animals are then given the test preparations intravenously in different dosages. At various points in time it is then determined whether the animals are able to remain on the rod for a minimum period (minimum period: 10 seconds; from 5 minutes after administration: 1 minute.). That dosages at which 50% of the animals are capable of remaining on the rod (ED 50) is determined.

[2] = Fatalities after i.v. administration to rats; assay type: in vivo; conditions: 32 and 100 mg/kg i.v.
[3] = target: central benzodiazepine receptors; test: Affinity to central benzodiazepine receptors: inhibition of binding of tritiated flumazenil in rat cortex; conditions: in vitro
Method: The affinity of compounds of general formula I to the central benzodiazepine receptors was established in vitro according to the methods described in Nature 294, 763-765 (1981) and J. Neurochemistry 37, 714-722 (1981). According to these methods, the inhibition of the binding of tritiated flumazenil to the specific benzodiazepine receptors in the cortex of rats by the respective test substances is determined. The IC50 ("50% inhibiting concentration") denotes that concentration of the respective test substance which brings about a 50 per cent inhibition of the specific binding of tritiated flumazenil to the specific benzodiazepine receptors in the cortex of rats.

[4] = Fatalities after i.v. administration to mice; assay type: in vivo; conditions: 32 and 100 mg/kg i.v.
[5] = 15 s, 15 sec after administration, read-out: Rotating rod test, ED50, 15 sec after administration
[6] = 0.5 min, 30 sec after administration, read-out: Rotating rod test, ED50, 30 sec after administration
[7] = 1 min, 60 sec after administration, read-out: Rotating rod test, ED50, 60 sec after administration
[8] = 2 min, 2 min after administration, read-out: Rotating rod test, ED50, 2 min after administration
[9] = 5 min, 5 min after administration, read-out: Rotating rod test, ED50, 5 min after administration
[10] = 0.25 h, 15 min after administration, read-out: Rotating rod test, ED50, 15 min after administration
[11] = 0.5 h, 30 min after administration, read-out: Rotating rod test, ED50, 30 min after administration
[12] = 1 h, 60 min after administration, read-out: Rotating rod test, ED50, 60 min after administration

Compound | ED50 [1, 5] | ED50 [1, 6] | ED50 [1, 7] | ED50 [1, 8] | ED50 [1, 9] | ED50 [1, 10] | ED50 [1, 11] | ED50 [1, 12] | fatalities [2] | IC50 [3] | fatalities [4]
CCCN(CCC)Cc1nc(-c2ncn3c2[C@@H]2CCN2C(=O)c2c(Cl)cccc2-3)no1 [A, (S)-8-chloro-1-(5-dipropylaminomethyl-1,2,4-oxadiazol-3-yl)-12,12a-dihydro-9H,11H-azeto[2,1-c]imidazo[1,5-a][1,4]benzodiazepin-9-one] | 0.3 mg/kg | 0.3 mg/kg | 0.7 mg/kg | 0.8 mg/kg | 1.4 mg/kg | 2.1 mg/kg | 7.3 mg/kg | > 10 mg/kg | without fatalities occurring | 13 nM | without fatalities occurring
CCCN(CCC)Cc1nc(-c2ncn3c2[C@@H]2CCN2C(=O)c2sccc2-3)no1 [B, (S)-1-(5-dipropylaminomethyl-1,2,4-oxadiazol-3-yl)-11,11a-dihydro-8H,10H-azeto[1,2-a]imidazo[5,1-c]thieno[3,2-e][1,4]diazepin-8-one] | 0.1 mg/kg | 0.1 mg/kg | 0.2 mg/kg | 0.4 mg/kg | 0.7 mg/kg | 3.5 mg/kg | > 10 mg/kg | > 10 mg/kg | without fatalities occurring | 4.3 nM | without fatalities occurring
CN1Cc2c(-c3noc(CN4CCCCC4)n3)ncn2-c2ccc(F)cc2C1=O [C, 8-fluoro-5-methyl-3-[5-(piperidin-1-ylmethyl)-1,2,4-oxadiazol-3-yl]-5,6-dihydro-4H-imidazo[1,5-a][1,4]benzodiazepin-6-one] | 0.8 mg/kg | 0.8 mg/kg | 1.2 mg/kg | 1.6 mg/kg | 3.2 mg/kg | ≥ 10 mg/kg | > 10 mg/kg | > 10 mg/kg | – | 50 nM | –
CCCN(CCC)Cc1nc(-c2ncn3c2CN(C)C(=O)c2cc(F)ccc2-3)no1 [D, 3-(5-dipropylaminomethyl-1,2,4-oxadiazol-3-yl)-8-fluoro-5-methyl-5,6-dihydro-4H-imidazo[1,5-a][1,4]benzodiazepin-6-one] | 0.2 mg/kg | 0.2 mg/kg | 0.3 mg/kg | 0.3 mg/kg | 0.8 mg/kg | 2.6 mg/kg | > 10 mg/kg | > 10 mg/kg | without fatalities occurring | 3.3 nM | without fatalities occurring
C=CCN(CC=C)Cc1nc(-c2ncn3c2[C@@H]2CCN2C(=O)c2c-3ccc(F)c2Cl)no1 [E, (S)-1-(5-diallylaminomethyl-1,2,4-oxadiazol-3-yl)-8-chloro-7-fluoro-12,12a-dihydro-9H,11H-azeto[2,1-c]imidazo[1,5-a][1,4]benzodiazepin-9-one] | 0.2 mg/kg | 0.3 mg/kg | 0.3 mg/kg | 0.4 mg/kg | 0.8 mg/kg | 3.9 mg/kg | ≥ 10 mg/kg | > 10 mg/kg | without fatalities occurring | 10 nM | without fatalities occurring
CCCN(CCC)Cc1nc(-c2ncn3c2CN(C)C(=O)c2ccccc2-3)no1 [F, 3-(5-dipropylaminomethyl-1,2,4-oxadiazol-3-yl)-5-methyl-5,6-dihydro-4H-imidazo[1,5-a][1,4]benzodiazepin-6-one] | 0.2 mg/kg | 0.4 mg/kg | 0.5 mg/kg | 0.9 mg/kg | ≥ 10 mg/kg | > 10 mg/kg | > 10 mg/kg | > 10 mg/kg | – | 6.9 nM | –
CCCN(CCC)Cc1nnc(-c2ncn3c2CN(C)C(=O)c2cc(F)ccc2-3)o1 [G, 3-(5-dipropylaminomethyl-1,3,4-oxadiazol-2-yl)-8-fluoro-5-methyl-5,6-dihydro-4H-imidazo[1,5-c][1,4]benzodiazepin-6-one] | 0.3 mg/kg | 0.3 mg/kg | 0.7 mg/kg | 1.1 mg/kg | 3.6 mg/kg | ≥ 10 mg/kg | > 10 mg/kg | > 10 mg/kg | – | 18.3 nM | –
CCN(CC)Cc1nc(-c2ncn3c2CN(C)C(=O)c2cc(F)ccc2-3)no1 [H, 3-(5-diethylaminomethyl-1,2,4-oxadiazol-3-yl)-8-fluoro-5-methyl-5,6-dihydro-4H-imidazo[1,5-a][1,4]benzodiazepin-6-one] | 0.1 mg/kg | 0.2 mg/kg | 0.4 mg/kg | 0.7 mg/kg | 1.2 mg/kg | 4.3 mg/kg | 5.1 mg/kg | > 10 mg/kg | – | 25 nM | –
